Source: PMC12473319, “TDMQ20 as A Drug Candidate for Wilson’s Disease: Comparison with D-Penicillamine, Trientine, and Tetrathiomolybdate In Vitro and In Mice” (Pharmaceutics, 2025)
Read-outs that look alike come from different tables or passages of the source.

Biological target: T1, Cu,Zn-SOD (Cu,Zn-superoxide dismutase) (Bos taurus, UniProt P00442)
T1 construct: gene SOD1
Experiment: SOD kit (xanthine/xanthine oxidase, WST-1 formazan at […] nm) after […] h pre-incubation with chelator
Format: biochemical

T1 sequence (P00442 2-152): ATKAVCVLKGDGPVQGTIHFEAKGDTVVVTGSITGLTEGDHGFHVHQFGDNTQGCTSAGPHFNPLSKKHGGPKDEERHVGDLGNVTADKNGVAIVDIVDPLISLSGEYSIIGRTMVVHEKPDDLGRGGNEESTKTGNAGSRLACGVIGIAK

SMILES	IC50 (read-out: IC50) [µM]	IC50 [µM]
CC(C)(S)[C@@H](N)C(=O)O [DPA, 3-mercapto-D-valine]	50 to 100	–
[S]=[Mo](=[S])([SH])[SH] [bcTTM, Bis-choline-tetrathiomolybdate]	–	< 0.2
